Source: PubChem BioAssay (NCI)
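Test compounds were applied to cells in 96-well plates for 48 hours at 5 doses. Here, GI50 denotes the concentration required for 50% inhibition of growth. TGI: total growth inhibition.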

Tests used:
Experiment in all cases: growth of human tumour cells (NCI), 48 h
HCT-116 colon = tested on: HCT-116 colon
OVCAR-4 ovarian = tested on: OVCAR-4 ovarian
A498 renal = tested on: A498 renal
UACC-257 melanoma = tested on: UACC-257 melanoma
SNB-78 CNS = tested on: SNB-78 CNS
ACHN renal = tested on: ACHN renal
A549 NSCLC = tested on: A549 NSCLC
KM12 colon = tested on: KM12 colon
DLD-1 colon = tested on: DLD-1 colon
MALME-3M melanoma = tested on: MALME-3M melanoma
SK-MEL-5 melanoma = tested on: SK-MEL-5 melanoma
SN12C renal = tested on: SN12C renal
UO-31 renal = tested on: UO-31 renal
HCC-2998 colon = tested on: HCC-2998 colon
HL-60(TB) leukemia = tested on: HL-60(TB) leukemia
OVCAR-8 ovarian = tested on: OVCAR-8 ovarian
KM20L2 colon = tested on: KM20L2 colon
LOX IMVI melanoma = tested on: LOX IMVI melanoma
OVCAR-3 ovarian = tested on: OVCAR-3 ovarian
M14 melanoma = tested on: M14 melanoma
NCI-H522 lung = tested on: NCI-H522 lung
RXF 393 renal = tested on: RXF 393 renal
SNB-75 CNS = tested on: SNB-75 CNS
HCT-15 colon = tested on: HCT-15 colon
SF-295 CNS = tested on: SF-295 CNS
DMS 114 small cell lung = tested on: DMS 114 small cell lung
TK-10 renal = tested on: TK-10 renal
HOP-92 NSCLC = tested on: HOP-92 NSCLC
SK-MEL-28 melanoma = tested on: SK-MEL-28 melanoma
SF-539 CNS = tested on: SF-539 CNS
CAKI-1 renal = tested on: CAKI-1 renal
NCI-H460 lung = tested on: NCI-H460 lung
OVCAR-5 ovarian = tested on: OVCAR-5 ovarian
NCI-H226 lung = tested on: NCI-H226 lung
K-562 leukemia = tested on: K-562 leukemia
HT29 colon = tested on: HT29 colon
EKVX NSCLC = tested on: EKVX NSCLC
LXFL 529 NSCLC = tested on: LXFL 529 NSCLC
SF-268 CNS = tested on: SF-268 CNS
SK-OV-3 ovarian = tested on: SK-OV-3 ovarian
SNB-19 CNS = tested on: SNB-19 CNS
HOP-62 NSCLC = tested on: HOP-62 NSCLC
786-0 renal = tested on: 786-0 renal
SW-620 colon = tested on: SW-620 colon
UACC-62 melanoma = tested on: UACC-62 melanoma
NCI-H23 lung = tested on: NCI-H23 lung
COLO 205 colon = tested on: COLO 205 colon
M19-MEL melanoma = tested on: M19-MEL melanoma
U251 CNS = tested on: U251 CNS
HOP-18 NSCLC = tested on: HOP-18 NSCLC
IGROV1 ovarian = tested on: IGROV1 ovarian

## CC(=O)OC(C(=O)[O][Ge]([CH3])([CH3])[CH3])c1ccccc1 (stereo unspecified)
HCT-116 colon
  GI50: > 100 µM
  TGI: > 100 µM
OVCAR-4 ovarian
  GI50: > 100 µM
  TGI: > 100 µM
A498 renal
  GI50: > 100 µM
  TGI: > 100 µM
UACC-257 melanoma
  GI50: > 100 µM
  TGI: > 100 µM
SNB-78 CNS
  GI50: > 100 µM
  TGI: > 100 µM
ACHN renal
  GI50: > 100 µM
  TGI: > 100 µM
A549 NSCLC
  GI50: > 100 µM
  TGI: > 100 µM
KM12 colon
  GI50: > 100 µM
  TGI: > 100 µM
DLD-1 colon
  GI50: > 100 µM
  TGI: > 100 µM
MALME-3M melanoma
  GI50: > 100 µM
  TGI: > 100 µM
SK-MEL-5 melanoma
  GI50: > 100 µM
  TGI: > 100 µM
SN12C renal
  GI50: > 100 µM
  TGI: > 100 µM
UO-31 renal
  GI50: > 100 µM
  TGI: > 100 µM
HCC-2998 colon
  GI50: > 100 µM
  TGI: > 100 µM
HL-60(TB) leukemia
  TGI: > 100 µM
OVCAR-8 ovarian
  GI50: > 100 µM
  TGI: > 100 µM
KM20L2 colon
  GI50: > 100 µM
  TGI: > 100 µM
LOX IMVI melanoma
  GI50: > 100 µM
  TGI: > 100 µM
OVCAR-3 ovarian
  GI50: > 100 µM
  TGI: > 100 µM
M14 melanoma
  GI50: > 100 µM
  TGI: > 100 µM
NCI-H522 lung
  GI50: > 100 µM
  TGI: > 100 µM
RXF 393 renal
  GI50: 0.264 µM
  TGI: 7.09 µM
SNB-75 CNS
  GI50: > 100 µM
  TGI: > 100 µM
HCT-15 colon
  GI50: > 100 µM
  TGI: > 100 µM
SF-295 CNS
  GI50: > 100 µM
  TGI: > 100 µM
DMS 114 small cell lung
  GI50: > 100 µM
  TGI: > 100 µM
TK-10 renal
  GI50: > 100 µM
  TGI: > 100 µM
HOP-92 NSCLC
  GI50: > 100 µM
  TGI: > 100 µM
SK-MEL-28 melanoma
  GI50: > 100 µM
  TGI: > 100 µM
SF-539 CNS
  GI50: > 100 µM
  TGI: > 100 µM
CAKI-1 renal
  GI50: > 100 µM
  TGI: > 100 µM
NCI-H460 lung
  GI50: > 100 µM
  TGI: > 100 µM
OVCAR-5 ovarian
  GI50: > 100 µM
  TGI: > 100 µM
NCI-H226 lung
  GI50: > 100 µM
  TGI: > 100 µM
K-562 leukemia
  GI50: > 100 µM
  TGI: > 100 µM
HT29 colon
  GI50: > 100 µM
  TGI: > 100 µM
EKVX NSCLC
  GI50: > 100 µM
  TGI: > 100 µM
LXFL 529 NSCLC
  GI50: > 100 µM
  TGI: > 100 µM
SF-268 CNS
  GI50: > 100 µM
  TGI: > 100 µM
SK-OV-3 ovarian
  GI50: > 100 µM
  TGI: > 100 µM
SNB-19 CNS
  GI50: > 100 µM
  TGI: > 100 µM
HOP-62 NSCLC
  GI50: > 100 µM
  TGI: > 100 µM
786-0 renal
  GI50: > 100 µM
  TGI: > 100 µM
SW-620 colon
  GI50: > 100 µM
  TGI: > 100 µM
UACC-62 melanoma
  GI50: > 100 µM
  TGI: > 100 µM
NCI-H23 lung
  GI50: > 100 µM
  TGI: > 100 µM
COLO 205 colon
  GI50: > 100 µM
  TGI: > 100 µM
M19-MEL melanoma
  GI50: > 100 µM
  TGI: > 100 µM
U251 CNS
  GI50: > 100 µM
  TGI: > 100 µM
HOP-18 NSCLC
  GI50: > 100 µM
  TGI: > 100 µM
IGROV1 ovarian
  GI50: > 100 µM
  TGI: > 100 µM
